{"source": "patent US7927789B1", "about": "“Self-referencing biodetection method and patterned bioassays” (SRU Biosystems, Inc., priority 2002, dated 2011)", "system": "gelatin", "assay": "Collagenase cleavage of patterned gelatin on biosensor, BIND imaging", "format": "biochemical", "settings": "1.5 mg/ml collagenase; gelatin versus regions without gelatin (rabbit IgG)", "experimental": "A pattern of gelatin (1 mg/ml, Sigma) was applied to a biosensor with a micropipette tip in the shape of the letters “SRU.” The gelatin was allowed to incubate on the biosensor surface for about 60 minutes before a thorough rinse with water. Next, the entire biosensor surface was exposed to a 1 mg/ml solution of rabbit IgG (Sigma) that attached a uniform thin layer of protein across the biosensor so that the peak wavelength value of the biosensor would be roughly equivalent in all locations. After a second rinse in water, the entire biosensor was exposed to a 1.5 mg/ml solution of collagenase, a specific binding partner, for about 80 minutes. The collagenase is an enzyme that selectively cleaves gelatin, thus selectively removing protein from the surface only in regions where the gelatin was applied. […] As a consequence of this selective interaction, an image is measured where the word “SRU” appears as a region with lower peak wavelength value compared to surrounding regions, as shown in FIG. 10.", "note": "“Also recorded” adds a separate entry of the source."}
{"substance": "collagenase", "values": [{"measurement": "peak wavelength value change in gelatin regions after collagenase", "value": "peak wavelength value in the gelatin regions is reduced relative to the regions without gelatin; also recorded: peak wavelength value in the gelatin reaction surfaces is reduced relative to the reference surfaces without gelatin"}]}
